The record followed here is patent US20100041646A1, “Phenylene-Bis-Oxazolidine Derivatives and Their Use as Anticoagulants” (BAYER HEALTHCARE AG, priority 2005, published 2010).

Usually IC50 stands for the midpoint of a concentration-inhibition curve. High values mean a need for much substance, low ones inhibition by little substance.

human factor Xa (FXa), sequence (P00742 235-488 limits assumed): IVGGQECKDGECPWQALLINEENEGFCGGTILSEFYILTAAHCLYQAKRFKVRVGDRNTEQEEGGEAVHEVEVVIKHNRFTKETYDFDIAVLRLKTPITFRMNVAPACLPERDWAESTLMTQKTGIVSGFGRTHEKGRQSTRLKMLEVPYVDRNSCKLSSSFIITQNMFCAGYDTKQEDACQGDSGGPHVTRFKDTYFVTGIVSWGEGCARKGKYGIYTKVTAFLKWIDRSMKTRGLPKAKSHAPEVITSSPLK
human factor Xa (FXa), sequence (P00742 41-179 partner limits assumed): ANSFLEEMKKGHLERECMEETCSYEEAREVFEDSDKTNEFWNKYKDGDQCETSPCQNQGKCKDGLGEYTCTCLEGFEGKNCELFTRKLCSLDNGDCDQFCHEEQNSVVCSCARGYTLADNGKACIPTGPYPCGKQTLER

The target of this experiment is human factor Xa (FXa) (Homo sapiens, UniProt P00742). In words: Determination of the factor Xa inhibition (chromogenic substrate). The class given is biochemical. Particulars: human FXa 0.5 nmol/l, 150 μmol/l Pefachrome FXa, 25° C., extinction at 405 nm. As for the experimental part: The enzymatic inhibition of human factor Xa (FXa) is measured using the conversion of a chromogenic substrate specific for FXa. Factor Xa cleaves p-nitroaniline from the chromogenic substrate. The determinations are carried out in microtiter plates as follows:
The test substances, in various concentrations, are dissolved in DMSO and incubated for 10 minutes at 25° C. with human FXa (0.5 nmol/l dissolved in 50 mmol/l of Tris buffer [C,C,C-tris(hydroxymethyl)aminomethane], 150 mmol/l of NaCl, 0.1% BSA [bovine serum albumin], pH 20=8.3). Pure DMSO is used as control. The chromogenic substrate (150 μmol/l Pefachrome® FXa from Pentapharm) is then added. After an incubation time of 20 minutes at 25° C., the extinction at 405 nm is determined.
For `N=C1OCCN1c1ccc(N2C[C@H](CNC(=O)c3ccc(Cl)s3)OC2=O)cc1` [Example 1, 5-Chloro-N-({(5S)-3-[4-(2-imino-1,3-oxazolidin-3-yl)phenyl]-2-oxo-1,3-oxazolidin-5-yl}methyl)thiophene-2-carboxamide], half-maximal inhibition (IC50) required 1.1 nM. The compound `N=C1OCCCN1c1ccc(N2C[C@H](CNC(=O)c3ccc(Cl)s3)OC2=O)cc1` [Example 5, 5-Chloro-N-({(5S)-3-[4-(2-imino-1,3-oxazinan-3-yl)phenyl]-2-oxo-1,3-oxazolidin-5-yl}methyl)thiophene-2-carboxamide methanesulfonate] showed an IC50 of 3.1 nM. Under `N#CN=C1OCCN1c1ccc(N2C[C@H](CNC(=O)c3ccc(Cl)s3)OC2=O)cc1` [Example 6, 5-Chloro-N-[((5S)-3-{4-[2-(cyanoimino)-1,3-oxazolidin-3-yl]phenyl}-2-oxo-1,3-oxazolidin-5-yl)methyl]thiophene-2-carboxamide] stands 16 nM.
